target: DLK kinase (N-terminally GST-tagged DLK, catalytic domain amino acid 1-520) (Homo sapiens (Human), UniProt Q12852); assay: DLK TR-FRET assay; type: biochemical; conditions: 30 μM ATP, MKK4 K131M substrate, read-out: DLK HTRF (Ki)
Method: DLK TR-FRET assay: DLK kinase reactions (20 μL) containing 5 nM N-terminally GST-tagged DLK (catalytic domain amino acid 1-520) (Carna Bioscience), 40 nM N-terminally HIS-tagged MKK4 K131M substrate, and 30 μM ATP in kinase reaction buffer (50 mM HEPES, pH 7.5, 0.01% Triton X-100, 0.01% Bovine γ-Globulins, 2 mM DTT, 10 mM MgCl2 and 1 mM EGTA), and testing compound 1:3 serial diluted starting at 20 uM were incubated at ambient temperature for 60 minutes in 384 well OptiPlate (Perkin Elmer). To quench kinase reactions and detect phosphorylated MKK4, 15 μL of TR-FRET antibody mixture containing 2 nM anti-phosphorylated MKK4 labeled with Europium cryptate (Cisbio) and 23 nM anti-HIS labeled with D2 (Cisbio) in detection buffer (25 mM Tris pH 7.5, 100 mM NaCl, 100 mM EDTA, 0.01% Tween-20, and 200 mM KF) was added to the reaction mixture. The detection mixture was incubated for 3 hours at ambient temperature and the TR-FRET was detected with an EnVision multilabel plate reader (Perkin-Elmer) using the LANCE/DELFIA Dual Enh label from Perkin-Elmer (excitation filter: UV2 (TRF) 320 and emission filters: APC 665 and Europium 615).

DLK kinase (N-terminally GST-tagged DLK, catalytic domain amino acid 1-520), sequence (Q12852 1-520): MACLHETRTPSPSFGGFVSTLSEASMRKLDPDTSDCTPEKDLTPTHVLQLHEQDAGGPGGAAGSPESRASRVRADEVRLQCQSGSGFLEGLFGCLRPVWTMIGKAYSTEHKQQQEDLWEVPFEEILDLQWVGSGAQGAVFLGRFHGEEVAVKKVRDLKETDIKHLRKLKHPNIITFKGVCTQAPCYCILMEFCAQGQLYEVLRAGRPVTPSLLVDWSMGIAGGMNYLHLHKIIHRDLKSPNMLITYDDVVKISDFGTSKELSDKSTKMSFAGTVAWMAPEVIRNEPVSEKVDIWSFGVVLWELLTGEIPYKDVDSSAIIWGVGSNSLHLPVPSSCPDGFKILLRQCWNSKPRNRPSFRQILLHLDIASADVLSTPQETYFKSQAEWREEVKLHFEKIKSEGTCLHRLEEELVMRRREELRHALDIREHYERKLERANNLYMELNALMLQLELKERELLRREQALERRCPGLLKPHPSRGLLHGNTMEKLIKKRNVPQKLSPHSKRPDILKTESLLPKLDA

SMILES | Ki
Cc1nc(Nc2ccc(C(F)(F)F)cn2)cc(C2CCCN(C(=O)c3ccccc3)C2)n1 (stereo not drawn) | 691 nM
CCc1ccnc(Nc2cc(C3CCCN(C(=O)c4ccccc4)C3)nc(C)n2)c1 (stereo not drawn) | 195 nM
Cc1nc(Nc2cc(C(F)(F)F)ccn2)cc(C2CCCN(C(=O)c3ccc(F)cc3Cl)C2)n1 (stereo not drawn) | 52.1 nM
Cc1ccc(Nc2cc(C3CCCN(C(=O)c4ccccc4)C3)nc(C)n2)nc1 (stereo not drawn) [Example 5] | 401 nM
COc1cc(C)ccc1C(=O)N1CCCC(c2cc(Nc3cc(C)ccn3)nc(C)n2)C1 (stereo not drawn) [Example 7] | 20.7 nM
Cc1nc(Nc2cc(C(N)=O)ccn2)cc(C2CCCN(C(=O)c3ccccc3)C2)n1 (stereo not drawn) [Example 8] | 795 nM
CCOc1ccnc(Nc2cc(C3CCCN(C(=O)c4ccccc4)C3)nc(C)n2)c1 (stereo not drawn) [Example 21, {3-[6-(4-Ethoxy-pyridin-2-ylamino)-2-methyl-pyrimidin-4-yl]-piperidin-1-yl}-phenyl-methanone] | 60.7 nM
Cc1nc(Nc2cc(C(F)(F)F)ccn2)cc(C2CCCN(C(=O)c3ccc(F)cc3)C2)n1 (stereo not drawn) [Example 22, (4-Fluoro-phenyl)-{3-[2-methyl-6-(4-trifluoro-methyl-pyridin-2-ylamino)-pyrimidin-4-yl]-piperidin-1-yl}-methanone] | 43.6 nM
Cc1ccnc(Nc2cc(C3CCNCC3)nc(N3CCCC3)n2)c1 [Example 24, (4-Methyl-pyridin-2-yl)-(6-piperidin-4-yl-2-pyrrolidin-1-yl-pyrimidin-4-yl)-amine] | 20.5 nM
Cc1ccnc(Nc2cc(C3CCN(C(=O)c4ccccc4)CC3)nc(N3CCCC3)n2)c1 [Example 25, {4-[6-(4-Methyl-pyridin-2-ylamino)-2-pyrrolidin-1-yl-pyrimidin-4-yl]-piperidin-1-yl}-phenyl-methanone] | 50 nM
Cc1ccnc(Nc2cc(C3CCCN(Cc4cn(C)nc4C)C3)nc(C)n2)c1 (stereo not drawn) [Example 38, {6-[1-(1,3-Dimethyl-1H-pyrazol-4-ylmethyl)-piperidin-3-yl]-2-methyl-pyrimidin-4-yl}-(4-methyl-pyridin-2-yl)-amine] | > 2100 nM
Cc1ccnc(Nc2cc(C3CCCN(Cc4cc(C)nn4C)C3)nc(C)n2)c1 (stereo not drawn) [Example 40, {6-[1-(2,5-Dimethyl-2H-pyrazol-3-ylmethyl)-piperidin-3-yl]-2-methyl-pyrimidin-4-yl}-(4-methyl-pyridin-2-yl)-amine] | 392 nM
CN(CCO)c1nc(Nc2cc(C(F)(F)F)ccn2)cc(C2CCNC2)n1 (stereo not drawn) [Example 47, 2-{Methyl-[4-pyrrolidin-3-yl-6-(4-trifluoromethyl-pyridin-2-ylamino)-pyrimidin-2-yl]-amino}-ethanol] | 12.6 nM
Cc1ccnc(Nc2cc(C3CCCN(Cc4ccc5nccn5c4)C3)nc(C)n2)c1 (stereo not drawn) [Example 49, [6-(1-Imidazo[1,2-a]pyridin-6-ylmethyl-piperidin-3-yl)-2-methyl-pyrimidin-4-yl]-(4-methyl-pyridin-2-yl)-amine] | 310 nM
Cc1ccnc(Nc2cc(C3CCCN(Cc4cn5ccccc5n4)C3)nc(C)n2)c1 (stereo not drawn) [Example 51, [6-(1-Imidazo[1,2-a]pyridin-2-ylmethyl-piperidin-3-yl)-2-methyl-pyrimidin-4-yl]-(4-methyl-pyridin-2-yl)-amine] | 166 nM
Cc1ccnc(Nc2cc(C3CCCN(Cc4ccccn4)C3)nc(C)n2)c1 (stereo not drawn) [Example 56, (4-Methyl-pyridin-2-yl)-[2-methyl-6-(1-pyridin-2-ylmethyl-piperidin-3-yl)-pyrimidin-4-yl]-amine] | 293 nM
CC1CCCN1c1nc(Nc2cc(C(F)(F)F)ccn2)cc(C2CCNCC2)n1 (stereo not drawn) [Example 65, [2-(2-Methyl-pyrrolidin-1-yl)-6-piperidin-4-yl-pyrimidin-4-yl]-(4-tri-fluoromethyl-pyridin-2-yl)-amine] | 0.735 nM
FC(F)(F)c1ccnc(Nc2cc(C3CCNC3)nc(N3CCCC3)n2)c1 (stereo not drawn) [Example 66, (2-Pyrrolidin-1-yl-6-pyr-rolidin-3-yl-pyrimidin-4-yl)-(4-trifluoromethyl-pyridin-2-yl)-amine] | 4.8 nM

SMILES | Ki
CC(=O)N1CCCC(c2cc(Nc3cc(C)ccn3)nc(N3CCC3)n2)C1 (stereo not drawn) [Example 87, 1-{3-[2-Azetidin-1-yl-6-(4-methyl-pyridin-2-ylamino)-pyrimidin-4-yl]-piperidin-1-yl}-ethanone] | 262 nM
CC(=O)N1CCC(c2cc(Nc3cc(C)ccn3)nc(N3CCCC3)n2)C1 (stereo not drawn) [Example 89, 1-{3-[6-(4-Methyl-pyridin-2-ylamino)-2-pyrrolidin-1-yl-pyrimidin-4-yl]-pyrrolidin-1-yl}-ethanone] | 59 nM
CC(=O)N1CCC(c2cc(Nc3cc(C)ccn3)nc(N3CCCCC3)n2)C1 (stereo not drawn) [Example 90, 1-{3-[6-(4-Methyl-pyridin-2-ylamino)-2-piperidin-1-yl-pyrimidin-4-yl]-pyrrolidin-1-yl}-ethanone] | 104 nM
FC1(F)CCCN(c2nc(Nc3cc(C(F)(F)F)ccn3)cc(C3CCNC3)n2)C1 (stereo not drawn) [Example 96, [2-(3,3-Difluoro-piperidin-1-yl)-6-pyrrolidin-3-yl-pyrimidin-4-yl]-(4-tri-fluoromethyl-pyridin-2-yl)-amine] | 3.1 nM
N#CC1(c2cc(Nc3cc(C(F)(F)F)ccn3)nc(N3CCC(F)(F)C3)n2)CCNCC1 [Example 105, 4-[2-(3,3-Difluoro-pyr-rolidin-1-yl)-6-(4-trifluoro-methyl-pyridin-2-ylamino)-pyrimidin-4-yl]-piperidine-4-carbonitrile] | 11.7 nM
CC(=O)N1CCCC(c2cc(Nc3cc(C)ccn3)nc(-c3ccccc3)n2)C1 (stereo not drawn) [Example 106, 1-{3-[6-(4-Methyl-pyridin-2-ylamino)-2-phenyl-pyrimidin-4-yl]-piperidin-1-yl}-ethanone] | 30.7 nM
C[C@@H]1CCCN1c1nc(Nc2cc(C(F)(F)F)ccn2)cc(C2CCNCC2)n1 [Example 111, [2-((R)-2-Methyl-pyrrolidin-1-yl)-6-piperidin-4-yl-pyrimidin-4-yl]-(4-trifluoromethyl-pyridin-2-yl)-amine] | 0.85 nM
C[C@H]1CCCN1c1nc(Nc2cc(C(F)(F)F)ccn2)cc(C2CCNCC2)n1 [Example 112, [2-((S)-2-Methyl-pyrrolidin-1-yl)-6-piperidin-4-yl-pyrimidin-4-yl]-(4-trifluoromethyl-pyridin-2-yl)-amine] | 15.8 nM
FC1(F)CCN(c2nc(Nc3cc(Cl)ccn3)cc(C3CCNCC3)n2)C1 [Example 120, (4-Chloro-pyridin-2-yl)-[2-(3,3-difluoro-pyrrolidin-1-yl)-6-piperidin-4-yl-pyrimidin-4-yl]-amine] | 8.55 nM
COc1ccnc(Nc2cc(C3CCNCC3)nc(N3CCCC3C)n2)c1 (stereo not drawn) [Example 125, (4-Methoxy-pyridin-2-yl)-[2-(2-methyl-pyrrolidin-1-yl)-6-piperidin-4-yl-pyrimidin-4-yl]-amine] | 15.2 nM
COc1ccnc(Nc2cc(C3CCN(C(C)=O)C3)nc(N3CCCC3C)n2)c1 (stereo not drawn) [Example 129, 1-{3-[6-(4-Methoxy-pyridin-2-ylamino)-2-(2-methyl-pyrrolidin-1-yl)-pyrimidin-4-yl]-pyrrolidin-1-yl}-ethanone] | 100 nM
C[C@@H]1CC[C@@H](C)N1c1nc(Nc2cc(C(F)(F)F)ccn2)cc(C2CCNCC2)n1 [Example 143, [2-((2R,5R)-2,5-Dimethyl-pyrrolidin-1-yl)-6-piperidin-4-yl-pyrimidin-4-yl]-(4-trifluoromethyl-pyridin-2-yl)-amine] | 10.4 nM
CC(C)c1nc(Nc2cc(C(F)(F)F)ccn2)cc(C2CCCN(C)C2)n1 (stereo not drawn) [Example 145, [2-Isopropyl-6-(1-methyl-piperidin-3-yl)-pyrimidin-4-yl]-(4-trifluoro-methyl-pyridin-2-yl)-amine] | 141 nM
CC(=O)N1CCC(C#N)(c2cc(Nc3cc(C(F)(F)F)ccn3)nc(N3CCC(F)(F)C3)n2)CC1 [Example 156, 1-Acetyl-4-[2-(3,3-difluoro-pyrrolidin-1-yl)-6-(4-trifluoromethyl-pyridin-2-ylamino)-pyrimidin-4-yl]-piperidine-4-carbonitrile] | 26.9 nM
CN1CCC(c2cc(Nc3cc(C(F)(F)F)ccn3)nc(N3CCC(F)(F)C3)n2)CC1 [Example 160, [2-(3,3-Difluoro-pyrrolidin-1-yl)-6-(1-methyl-piperidin-4-yl)-pyrimidin-4-yl]-(4-trifluoromethyl-pyridin-2-yl)-amine] | 4.42 nM
C[C@@H]1CCCN1c1nc(Nc2cc(C(F)(F)F)ccn2)cc(C2CCN(C)CC2)n1 [Example 169, [6-(1-Methyl-piperidin-4-yl)-2-((R)-2-methyl-pyrrolidin-1-yl)-pyrimidin-4-yl]-(4-trifluoromethyl-pyridin-2-yl)-amine] | 0.4 nM
N#CCC(=O)N1CCCC(c2cc(Nc3cc(C(F)(F)F)ccn3)nc(C3CC3)n2)C1 (stereo not drawn) [Example 173, 3-{3-[2-Cyclopropyl-6-(4-trifluoromethyl-pyridin-2-ylamino)-pyrimidin-4-yl]-piperidin-1-yl}-3-oxo-propionitrile] | 37 nM
CC(=O)N1CCC(c2cc(Nc3cc(C(F)(F)F)ccn3)nc(N3CCC[C@H]3C)n2)CC1 [Example 175, 1-{4-[2-((R)-2-Methyl-pyrrolidin-1-yl)-6-(4-trifluoromethyl-pyridin-2-ylamino)-pyrimidin-4-yl]-piperidin-1-yl}-ethanone] | 2.2 nM
